In patent publication US20200024278A1, “COMPOSITION COMPRISING ANTIBIOTIC COMPOUND AND AN HETEROCYCLIC COMPOUND AND THEIR USE IN PREVENTING OR TREATING BACTERIAL INFECTIONS” (MUTABILIS, priority 2016, published 2020):
Where two headings read alike, the source gives them in different places.

Key:
Experiment in all cases: MIC, broth microdilution (CLSI), substance alone or ATB combined with compound at 4 or 8 μg/mL
ECO 190317 = type: cell-based, E. coli; details: ECO 190317; for MIC: Escherichia coli
Summary of the method: (§1)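 CLSI broth microdilution in cation-adjusted Mueller-Hinton broth, 5·10^5 CFU/mL log-phase inoculum, 16-20 h at 35 °C in ambient air. Fosfomycin assays supplemented with 25 μg/ml glucose-6-phosphate.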

ECO UFR39 = type: cell-based, E. coli; details: ECO UFR39; for MIC: Escherichia coli
Summary of the method: as §1

KPN 6299 = type: cell-based, K. pneumoniae; details: for MIC: Klebsiella pneumoniae
Summary of the method: as §1

KPN BAA-1898 = type: cell-based, K. pneumoniae; details: KPN BAA-1898; for MIC: Klebsiella pneumoniae, BAA1898
Summary of the method: as §1

KPN UFR42 = type: cell-based, K. pneumoniae; details: KPN UFR42
Summary of the method: as §1

ECL P99 = type: cell-based, E. cloacae; details: ECL P99; with Example 1 @8 μg/ml
Summary of the method: as §1

[1] = antibiotic alone, read-out: MIC ATB alone

In the case of `CC1(C)S[C@@H]2[C@H](NC(=O)[C@H](N)c3ccc(O)cc3)C(=O)N2[C@H]1C(=O)O` [AMX, Amoxicillin, reference compound], the “MIC ATB combined with Example 1 @8 μg/ml” value (ECO 190317; with Example 1 @8 μg/ml) is reported as under 0.031 µg/mL, the “MIC ATB combined with Example 1 @8 μg/ml” value (ECO 190317; with Example 1 at 8 μg/ml) is reported as under 0.031 µg/mL and the “MIC ATB combined with Example 7 @8 μgml” value (ECO 190317; with Example 7 at 8 μg/ml) is reported as under 0.031 µg/mL. For the same compound, the “MIC ATB combined with Example 9 @4 μg/ml” value (ECO 190317; with Example 9 @4 μg/ml) was under 0.031 µg/mL, the “MIC ATB combined with Example 9 @4 μg/ml” value (ECO 190317; with Example 9 at 4 μg/ml) was under 0.031 µg/mL and the “MIC ATB combined with Example 11 @8 μg/ml” value (ECO 190317; with Example 11 at 8 μg/ml) was under 0.031 µg/mL. For the same compound, the “MIC ATB combined with Example 12 @8 μg/ml” value (ECO 190317; with Example 12 at 8 μg/ml) was under 0.031 µg/mL, the “MIC ATB combined with Example 13 @8 μg/ml” value (ECO 190317; with Example 13 at 8 μg/ml) was under 0.031 µg/mL and the “MIC ATB combined with Example 14 @8 μg/ml” value (ECO 190317; with Example 14 at 8 μg/ml) was under 0.031 µg/mL. For the same compound, the “MIC ATB combined with Example 15 @4 μgml” value (ECO 190317; with Example 15 at 4 μg/ml) was under 0.031 µg/mL, the “MIC ATB combined with Example 16 @4 μg/ml” value (ECO 190317; with Example 16 at 4 μg/ml) was under 0.031 µg/mL and the MIC (ECO 190317; [1]) was over 1020 µg/mL. The MIC (ECO 190317; substance alone, read-out: MIC) was over 1020 µg/mL, the “MIC ATB combined with Example 1 @8 μg/ml” value (ECO UFR39; with Example 1 @8 μg/ml) was under 0.031 µg/mL and the “MIC ATB combined with Example 1 @8 μg/ml” value (ECO UFR39; with Example 1 at 8 μg/ml) was under 0.031 µg/mL. For the same compound, the “MIC ATB combined with Example 7 @8 μgml” value (ECO UFR39; with Example 7 at 8 μg/ml) was under 0.031 µg/mL, the “MIC ATB combined with Example 9 @4 μg/ml” value (ECO UFR39; with Example 9 @4 μg/ml) was under 0.031 µg/mL and the “MIC ATB combined with Example 9 @4 μg/ml” value (ECO UFR39; with Example 9 at 4 μg/ml) was under 0.031 µg/mL. The “MIC ATB combined with Example 11 @8 μg/ml” value (ECO UFR39; with Example 11 at 8 μg/ml) was under 0.031 µg/mL, the “MIC ATB combined with Example 12 @8 μg/ml” value (ECO UFR39; with Example 12 at 8 μg/ml) was under 0.031 µg/mL and the “MIC ATB combined with Example 13 @8 μg/ml” value (ECO UFR39; with Example 13 at 8 μg/ml) was under 0.031 µg/mL. For the same compound, the “MIC ATB combined with Example 14 @8 μg/ml” value (ECO UFR39; with Example 14 at 8 μg/ml) was under 0.031 µg/mL, the “MIC ATB combined with Example 15 @4 μgml” value (ECO UFR39; with Example 15 at 4 μg/ml) was under 0.031 µg/mL and the “MIC ATB combined with Example 16 @4 μg/ml” value (ECO UFR39; with Example 16 at 4 μg/ml) was under 0.031 µg/mL. The MIC (ECO UFR39; [1]) was over 1020 µg/mL, the MIC (ECO UFR39; substance alone, read-out: MIC) was over 1020 µg/mL and the MIC (KPN 6299; [1]) was over 1020 µg/mL. The MIC (KPN 6299; substance alone, read-out: MIC) was over 1020 µg/mL, the “MIC ATB combined with Example 1 @8 μg/ml” value (KPN 6299; with Example 1 @8 μg/ml) was over 32 µg/mL and the “MIC ATB combined with Example 1 @8 μg/ml” value (KPN 6299; with Example 1 at 8 μg/ml) was over 32 µg/mL. The “MIC ATB combined with Example 7 @8 μgml” value (KPN 6299; with Example 7 at 8 μg/ml) was 0.5 µg/mL, the “MIC ATB combined with Example 9 @4 μg/ml” value (KPN 6299; with Example 9 @4 μg/ml) was “<=0.5 μg/mL” and the “MIC ATB combined with Example 9 @4 μg/ml” value (KPN 6299; with Example 9 at 4 μg/ml) was under 0.031 µg/mL. For the same compound, the “MIC ATB combined with Example 11 @8 μg/ml” value (KPN 6299; with Example 11 at 8 μg/ml) was under 0.031 µg/mL, the “MIC ATB combined with Example 12 @8 μg/ml” value (KPN 6299; with Example 12 at 8 μg/ml) was under 0.031 µg/mL and the “MIC ATB combined with Example 13 @8 μg/ml” value (KPN 6299; with Example 13 at 8 μg/ml) was 2 µg/mL. For the same compound, the “MIC ATB combined with Example 14 @8 μg/ml” value (KPN 6299; with Example 14 at 8 μg/ml) was under 0.031 µg/mL, the “MIC ATB combined with Example 15 @4 μgml” value (KPN 6299; with Example 15 at 4 μg/ml) was under 0.031 µg/mL and the “MIC ATB combined with Example 16 @4 μg/ml” value (KPN 6299; with Example 16 at 4 μg/ml) was under 0.031 µg/mL. The “MIC ATB combined with Example 1 @8 μg/ml” value (KPN BAA-1898; with Example 1 @8 μg/ml) was over 32 µg/mL, the “MIC ATB combined with Example 1 @8 μg/ml” value (KPN BAA-1898; with Example 1 at 8 μg/ml) was over 32 µg/mL and the “MIC ATB combined with Example 7 @8 μgml” value (KPN BAA-1898; with Example 7 at 8 μg/ml) was over 32 µg/mL. The “MIC ATB combined with Example 9 @4 μg/ml” value (KPN BAA-1898; with Example 9 @4 μg/ml) was under 0.031 µg/mL, the “MIC ATB combined with Example 9 @4 μg/ml” value (KPN BAA-1898; with Example 9 at 4 μg/ml) was under 0.031 µg/mL and the “MIC ATB combined with Example 11 @8 μg/ml” value (KPN BAA-1898; with Example 11 at 8 μg/ml) was under 0.031 µg/mL. For the same compound, the “MIC ATB combined with Example 12 @8 μg/ml” value (KPN BAA-1898; with Example 12 at 8 μg/ml) was under 0.031 µg/mL, the “MIC ATB combined with Example 13 @8 μg/ml” value (KPN BAA-1898; with Example 13 at 8 μg/ml) was over 32 µg/mL and the “MIC ATB combined with Example 14 @8 μg/ml” value (KPN BAA-1898; with Example 14 at 8 μg/ml) was under 0.031 µg/mL. The “MIC ATB combined with Example 15 @4 μgml” value (KPN BAA-1898; with Example 15 at 4 μg/ml) was under 0.031 µg/mL, the “MIC ATB combined with Example 16 @4 μg/ml” value (KPN BAA-1898; with Example 16 at 4 μg/ml) was under 0.031 µg/mL and the MIC (KPN BAA-1898; [1]) was over 1020 µg/mL. For the same compound, the MIC (KPN BAA-1898; substance alone, read-out: MIC) was over 1020 µg/mL, the “MIC ATB combined with Example 1 @8 μg/ml” value (KPN UFR42; with Example 1 @8 μg/ml) was over 32 µg/mL and the “MIC ATB combined with Example 1 @8 μg/ml” value (KPN UFR42; with Example 1 at 8 μg/ml) was over 32 µg/mL. For the same compound, the “MIC ATB combined with Example 7 @8 μgml” value (KPN UFR42; with Example 7 at 8 μg/ml) was over 32 µg/mL, the “MIC ATB combined with Example 9 @4 μg/ml” value (KPN UFR42; with Example 9 @4 μg/ml) was over 32 µg/mL and the “MIC ATB combined with Example 9 @4 μg/ml” value (KPN UFR42; with Example 9 at 4 μg/ml) was over 32 µg/mL. For the same compound, the “MIC ATB combined with Example 11 @8 μg/ml” value (KPN UFR42; with Example 11 at 8 μg/ml) was under 0.031 µg/mL, the “MIC ATB combined with Example 12 @8 μg/ml” value (KPN UFR42; with Example 12 at 8 μg/ml) was under 0.031 µg/mL and the “MIC ATB combined with Example 13 @8 μg/ml” value (KPN UFR42; with Example 13 at 8 μg/ml) was over 32 µg/mL. For the same compound, the “MIC ATB combined with Example 14 @8 μg/ml” value (KPN UFR42; with Example 14 at 8 μg/ml) was under 0.031 µg/mL, the “MIC ATB combined with Example 15 @4 μgml” value (KPN UFR42; with Example 15 at 4 μg/ml) was under 0.031 µg/mL and the “MIC ATB combined with Example 16 @4 μg/ml” value (KPN UFR42; with Example 16 at 4 μg/ml) was under 0.031 µg/mL. For the same compound, the MIC (KPN UFR42; Klebsiella pneumoniae, antibiotic alone, read-out: MIC ATB alone) was over 256 µg/mL and the “MIC ATB combined with Example 1 @8 μg/ml” value (ECL P99) was under 0.031 µg/mL.
